Measurements as given in ChEMBL document CHEMBL1158151, “Cactus Alkaloids. XXXIX. A Glucotetrahydroiosquinoline From the Mexican Cactus, Pterocereus gaumeri” (1979).
Values after ≈ are worked out from the molar mass of the structure shown.

Experiment: Cytotoxicity against human 9KB cells
Type: functional
Conditions: read-out: ED50 (the source's name)

SMILES	EC50 [µg/mL]
COc1cc2c(c(O)c1OC)CCN(C)C2CO (configuration not stated) [DEGLUCOPTEROCEREINE]	16 (≈ 63.2 µM)
COc1cc2c(c(O[C@@H]3O[C@H](CO)[C@@H](O)[C@H](O)[C@H]3O)c1OC)CCN(C)C2CO (some centres not stated) [PTEROCEREINE]	> 100
